Test results taken from ChEMBL document CHEMBL5634117 (Eur J Med Chem, 2023).
Calls of active or inactive are those of the source. No cut-off for these calls is given here.

Key:
[1] = target: T1, Mitogen-activated protein kinase 8 (Homo sapiens, UniProt P45983); assay: Inhibition of human JNK1 at 10 uM in presence of ATP relative to control
[2] = target: T2, Mitogen-activated protein kinase 9 (Homo sapiens, UniProt P45984); assay: Inhibition of human JNK2 at 10 uM in presence of ATP relative to control
Target sequence in this assay (P45984 whole entry, looked up): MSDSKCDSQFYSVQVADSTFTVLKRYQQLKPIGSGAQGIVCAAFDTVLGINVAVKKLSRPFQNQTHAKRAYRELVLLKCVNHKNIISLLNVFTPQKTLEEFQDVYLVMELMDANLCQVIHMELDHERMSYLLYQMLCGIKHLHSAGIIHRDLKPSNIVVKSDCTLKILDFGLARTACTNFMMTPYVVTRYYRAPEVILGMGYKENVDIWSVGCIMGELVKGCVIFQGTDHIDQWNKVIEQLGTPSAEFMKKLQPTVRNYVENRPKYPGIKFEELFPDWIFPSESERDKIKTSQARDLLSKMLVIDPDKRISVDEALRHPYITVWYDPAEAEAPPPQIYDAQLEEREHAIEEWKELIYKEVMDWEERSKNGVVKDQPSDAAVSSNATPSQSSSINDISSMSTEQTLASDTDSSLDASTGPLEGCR

[3] = target: T1, Mitogen-activated protein kinase 8; assay: Inhibition of human JNK1 in presence of ATP
[4] = target: T2, Mitogen-activated protein kinase 9; assay: Inhibition of human JNK2 in presence of ATP
Target sequence in this assay (P45984 whole entry): as the sequence (P45984 whole entry, looked up) above

[5] = target: T3, Mitogen-activated protein kinase 10 (Homo sapiens, UniProt P53779); assay: Inhibition of human JNK3 at 10 uM in presence of ATP relative to control
T3 sequence (P53779 whole entry): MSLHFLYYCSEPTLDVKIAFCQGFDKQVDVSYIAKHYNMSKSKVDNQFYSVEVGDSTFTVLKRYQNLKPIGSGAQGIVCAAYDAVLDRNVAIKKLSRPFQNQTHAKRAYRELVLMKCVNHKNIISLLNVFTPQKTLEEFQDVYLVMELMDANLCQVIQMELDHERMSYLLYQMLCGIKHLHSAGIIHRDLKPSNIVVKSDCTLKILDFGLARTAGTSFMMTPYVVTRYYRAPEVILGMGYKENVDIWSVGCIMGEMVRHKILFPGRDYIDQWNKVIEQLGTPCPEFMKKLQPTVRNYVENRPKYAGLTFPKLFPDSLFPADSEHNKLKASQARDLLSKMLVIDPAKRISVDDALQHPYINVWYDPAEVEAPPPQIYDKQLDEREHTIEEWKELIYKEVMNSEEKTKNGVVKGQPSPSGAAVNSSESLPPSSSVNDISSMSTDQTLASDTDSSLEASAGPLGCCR

[6] = target: T3, Mitogen-activated protein kinase 10; assay: Inhibition of human JNK3 in presence of ATP
[7] = target: Voltage-gated inwardly rectifying potassium channel KCNH2 (Homo sapiens, UniProt Q12809); assay: Inhibition of human ERG; format: toxicity
Voltage-gated inwardly rectifying potassium channel KCNH2, sequence (Q12809 whole entry): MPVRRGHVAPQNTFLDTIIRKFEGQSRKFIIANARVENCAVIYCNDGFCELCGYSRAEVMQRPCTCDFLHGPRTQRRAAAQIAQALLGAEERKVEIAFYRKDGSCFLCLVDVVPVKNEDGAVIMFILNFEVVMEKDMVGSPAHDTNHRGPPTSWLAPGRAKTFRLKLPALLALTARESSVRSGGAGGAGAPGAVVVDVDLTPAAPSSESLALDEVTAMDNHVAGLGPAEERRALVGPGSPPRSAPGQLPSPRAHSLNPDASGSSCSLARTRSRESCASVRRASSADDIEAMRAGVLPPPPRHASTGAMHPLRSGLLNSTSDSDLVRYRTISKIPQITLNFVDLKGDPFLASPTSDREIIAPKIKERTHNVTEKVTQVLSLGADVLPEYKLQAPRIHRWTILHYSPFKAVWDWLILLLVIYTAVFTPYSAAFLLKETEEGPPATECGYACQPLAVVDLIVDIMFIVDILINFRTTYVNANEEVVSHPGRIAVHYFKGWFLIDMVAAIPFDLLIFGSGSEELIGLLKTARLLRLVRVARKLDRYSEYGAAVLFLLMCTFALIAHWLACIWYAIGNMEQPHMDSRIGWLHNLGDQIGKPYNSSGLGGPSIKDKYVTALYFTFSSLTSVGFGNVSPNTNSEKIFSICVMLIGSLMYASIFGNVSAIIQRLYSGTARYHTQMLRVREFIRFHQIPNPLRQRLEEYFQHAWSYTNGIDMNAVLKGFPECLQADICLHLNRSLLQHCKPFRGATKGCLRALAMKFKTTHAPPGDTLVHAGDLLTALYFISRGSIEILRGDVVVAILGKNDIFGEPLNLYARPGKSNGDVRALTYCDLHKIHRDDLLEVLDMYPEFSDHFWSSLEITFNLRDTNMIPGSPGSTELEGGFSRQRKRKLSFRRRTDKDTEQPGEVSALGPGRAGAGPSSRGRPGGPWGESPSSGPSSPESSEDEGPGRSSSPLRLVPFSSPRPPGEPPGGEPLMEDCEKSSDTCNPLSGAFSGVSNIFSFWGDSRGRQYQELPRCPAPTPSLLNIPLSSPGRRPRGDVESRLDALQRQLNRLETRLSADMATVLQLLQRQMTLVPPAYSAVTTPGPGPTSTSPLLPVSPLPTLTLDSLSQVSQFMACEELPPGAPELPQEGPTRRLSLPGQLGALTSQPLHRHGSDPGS

[8] = system: K562; assay: Induction of apoptosis in human K562 cells assessed as late apoptotic cells at 1.25 uM incubated for 24 hrs by annexinV and propidium iodide staining based flow cytometry analysis (reference value: 0.82%); format: functional
[9] = system: K562; assay: Induction of apoptosis in human K562 cells assessed as early apoptotic cells at 5 uM incubated for 24 hrs by annexinV and propidium iodide staining based flow cytometry analysis (reference value: 1.17%); format: functional
[10] = system: K562; assay: Induction of cell cycle arrest in human K562 cells assessed as accumulation of cells at S phase at 2.5 uM measured after 24 hrs by PI staining based flow cytometry analysis (reference value: 24.75%); format: functional
[11] = system: K562; assay: Induction of cell cycle arrest in human K562 cells assessed as accumulation of cells at G0/G1 phase at 1.25 uM measured after 24 hrs by PI staining based flow cytometry analysis (reference value: 46.72%); format: functional
[12] = system: K562; assay: Induction of cell cycle arrest in human K562 cells assessed as accumulation of cells at G2/M phase at 1.25 uM measured after 24 hrs by PI staining based flow cytometry analysis (reference value: 25.62%); format: functional
[13] = system: K562; assay: Induction of cell cycle arrest in human K562 cells assessed as accumulation of cells at S phase at 5 uM measured after 24 hrs by PI staining based flow cytometry analysis (reference value: 24.75%); format: functional
[14] = system: K562; assay: Induction of apoptosis in human K562 cells assessed as late apoptotic cells at 2.5 uM incubated for 24 hrs by annexinV and propidium iodide staining based flow cytometry analysis (reference value: 0.82%); format: functional
[15] = system: K562; assay: Induction of cell cycle arrest in human K562 cells assessed as accumulation of cells at G0/G1 phase at 5 uM measured after 24 hrs by PI staining based flow cytometry analysis (reference value: 46.72%); format: functional
[16] = target: Cytochrome P450 2D6 (Homo sapiens, UniProt P10635); assay: Inhibition of CYP2D6 (unknown origin) using vivid EOMCC as substrate; format: ADME
Cytochrome P450 2D6, sequence (P10635 whole entry): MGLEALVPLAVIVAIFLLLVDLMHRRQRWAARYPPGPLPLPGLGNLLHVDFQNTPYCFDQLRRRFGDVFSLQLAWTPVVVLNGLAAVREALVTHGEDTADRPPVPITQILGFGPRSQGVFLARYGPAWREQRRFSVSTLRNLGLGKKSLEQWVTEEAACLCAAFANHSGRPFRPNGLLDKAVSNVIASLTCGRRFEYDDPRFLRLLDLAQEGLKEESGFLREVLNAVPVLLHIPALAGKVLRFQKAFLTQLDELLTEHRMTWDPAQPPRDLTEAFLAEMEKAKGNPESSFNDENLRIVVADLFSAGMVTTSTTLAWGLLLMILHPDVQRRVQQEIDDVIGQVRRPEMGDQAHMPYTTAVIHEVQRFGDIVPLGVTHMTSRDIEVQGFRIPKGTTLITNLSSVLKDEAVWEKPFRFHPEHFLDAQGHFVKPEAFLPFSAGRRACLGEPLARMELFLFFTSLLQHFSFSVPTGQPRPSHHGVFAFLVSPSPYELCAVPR

[17] = system: K562; assay: Induction of autophagy in human K562 cells assessed as increase in beclin-1 level at 2.5 to 5 uM measured after 24 hrs by Western blotting analysis; format: functional, cell-based; settings: dose 2.5-5 µM
[18] = target: T1, Mitogen-activated protein kinase 8; assay: Inhibition of JNK1 (unknown origin) expressed in HEK293 cells assessed as target engagement incubated for 1 hr by NanoBRET assay; format: cell-based
[19] = system: K562; assay: Induction of cell cycle arrest in human K562 cells assessed as accumulation of cells at SubG1 phase at 2.5 uM measured after 24 hrs by PI staining based flow cytometry analysis (reference value: 2.21%); format: functional
[20] = system: K562; assay: Induction of cell cycle arrest in human K562 cells assessed as accumulation of cells at G2/M phase at 5 uM measured after 24 hrs by PI staining based flow cytometry analysis (reference value: 25.62%); format: functional
[21] = target: Cytochrome P450 3A4 (Homo sapiens, UniProt P08684); assay: Inhibition of CYP3A4 (unknown origin) using vivid BOMCC as substrate; format: ADME
Cytochrome P450 3A4, sequence (P08684 whole entry): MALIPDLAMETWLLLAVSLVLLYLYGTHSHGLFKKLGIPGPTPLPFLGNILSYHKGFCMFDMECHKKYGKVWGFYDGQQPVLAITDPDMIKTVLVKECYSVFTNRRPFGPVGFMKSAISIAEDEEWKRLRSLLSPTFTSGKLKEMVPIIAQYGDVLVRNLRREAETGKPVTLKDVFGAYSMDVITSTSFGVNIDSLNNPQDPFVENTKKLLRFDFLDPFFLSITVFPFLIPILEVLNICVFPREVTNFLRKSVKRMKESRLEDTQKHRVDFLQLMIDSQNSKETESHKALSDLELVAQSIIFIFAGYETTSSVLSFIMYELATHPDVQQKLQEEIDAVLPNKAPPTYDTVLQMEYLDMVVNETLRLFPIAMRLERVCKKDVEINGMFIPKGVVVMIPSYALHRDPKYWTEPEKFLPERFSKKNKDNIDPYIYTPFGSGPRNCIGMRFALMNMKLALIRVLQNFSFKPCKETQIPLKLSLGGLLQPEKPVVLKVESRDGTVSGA

[22] = system: K562; assay: Induction of cell cycle arrest in human K562 cells assessed as accumulation of cells at G0/G1 phase at 2.5 uM measured after 24 hrs by PI staining based flow cytometry analysis (reference value: 46.72%); format: functional
[23] = system: K562; assay: Induction of cell cycle arrest in human K562 cells assessed as accumulation of cells at S phase at 1.25 uM measured after 24 hrs by PI staining based flow cytometry analysis (reference value: 24.75%); format: functional
[24] = system: K562; assay: Induction of apoptosis in human K562 cells assessed as late apoptotic cells at 5 uM incubated for 24 hrs by annexinV and propidium iodide staining based flow cytometry analysis (reference value: 0.82%); format: functional
[25] = system: K562; assay: Induction of apoptosis in human K562 cells assessed as early apoptotic cells at 2.5 uM incubated for 24 hrs by annexinV and propidium iodide staining based flow cytometry analysis (reference value: 1.17%); format: functional
[26] = system: K562; assay: Induction of cell cycle arrest in human K562 cells assessed as accumulation of cells at SubG1 phase at 5 uM measured after 24 hrs by PI staining based flow cytometry analysis (reference value: 2.21%); format: functional
[27] = system: K562; assay: Induction of apoptosis in human K562 cells assessed as early apoptotic cells at 1.25 uM incubated for 24 hrs by annexinV and propidium iodide staining based flow cytometry analysis (reference value: 1.17%); format: functional
[28] = system: K562; assay: Induction of cell cycle arrest in human K562 cells assessed as accumulation of cells at SubG1 phase at 1.25 uM measured after 24 hrs by PI staining based flow cytometry analysis (reference value: 2.21%); format: functional
[29] = system: K562; assay: Induction of cell cycle arrest in human K562 cells assessed as accumulation of cells at G2/M phase at 2.5 uM measured after 24 hrs by PI staining based flow cytometry analysis (reference value: 25.62%); format: functional

T1 sequence (P45983 whole entry): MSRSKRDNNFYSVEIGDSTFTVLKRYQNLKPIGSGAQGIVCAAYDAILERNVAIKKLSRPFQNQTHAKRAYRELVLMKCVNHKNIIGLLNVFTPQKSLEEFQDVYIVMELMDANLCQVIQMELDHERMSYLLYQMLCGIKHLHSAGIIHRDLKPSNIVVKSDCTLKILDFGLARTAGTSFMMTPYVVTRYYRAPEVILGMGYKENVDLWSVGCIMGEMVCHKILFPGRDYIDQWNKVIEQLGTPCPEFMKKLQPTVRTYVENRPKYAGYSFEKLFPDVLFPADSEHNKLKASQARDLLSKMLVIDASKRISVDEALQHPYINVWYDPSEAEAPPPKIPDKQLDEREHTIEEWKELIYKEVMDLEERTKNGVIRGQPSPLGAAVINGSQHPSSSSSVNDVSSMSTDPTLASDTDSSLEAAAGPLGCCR

CC(C)(C)n1cc(-c2ccnc(NCCNS(=O)(=O)c3ccc(Br)cc3)c2)c(-c2cccc(O)c2)n1
inhibition [1]: 74%

COc1cccc(-c2nn(C(C)(C)C)cc2-c2ccnc(NCCCNS(=O)(=O)c3ccc(F)cc3)c2)c1
inhibition [1]: 41.4%

COc1ccc(S(=O)(=O)NCCNc2cc(-c3cn(C(C)(C)C)nc3-c3cccc(OC)c3)ccn2)cc1
inhibition [1]: 9.82%

COc1cccc(-c2nn(C(C)(C)C)cc2-c2ccnc(NCCNS(=O)(=O)c3ccccc3)c2)c1
inhibition [1]: 3.74%

CC(C)(C)n1cc(-c2ccnc(NCCCNS(=O)(=O)c3ccc(F)cc3)c2)c(-c2cccc(O)c2)n1
inhibition [2]: 98.9% | IC50 [3]: 3.5 nM | IC50 [4]: 19.8 nM | inhibition [1]: 96.8% | inhibition [5]: 98.5% | IC50 [6]: 10.1 nM

Cc1ccc(S(=O)(=O)NCCCNc2cc(-c3cn(C(C)(C)C)nc3-c3cccc(O)c3)ccn2)cc1
inhibition [2]: 98.8% | IC50 [3]: 15.1 nM | inhibition [1]: 97% | inhibition [5]: 98.2%

CC(C)(C)n1cc(-c2ccnc(NCCCNS(=O)(=O)c3ccccc3)c2)c(-c2cccc(O)c2)n1
inhibition [2]: 98.5% | IC50 [3]: 3.75 nM | IC50 [4]: 23.1 nM | inhibition [1]: 99.4% | inhibition [5]: 99.1% | IC50 [6]: 20.2 nM

COc1cccc(-c2nn(C(C)(C)C)cc2-c2ccnc(NCCCNS(=O)(=O)c3cccc4ccccc34)c2)c1
inhibition [1]: 21.3%

Cc1ccc(S(=O)(=O)NCCNc2cc(-c3cn(C(C)(C)C)nc3-c3cccc(O)c3)ccn2)cc1
inhibition [1]: 85.8%

COc1cccc(-c2nn(C(C)(C)C)cc2-c2ccnc(NCCCNS(=O)(=O)c3ccc(C(F)(F)F)cc3)c2)c1
inhibition [1]: 13.2%

CC(C)(C)n1cc(-c2ccnc(NCCNS(=O)(=O)c3ccccc3)c2)c(-c2cccc(O)c2)n1
inhibition [1]: 81.8%

CCNC1CCNC1 (centres undefined)
IC50 [7]: 12.8 nM

CC(C)(C)n1cc(-c2ccnc(NCCNS(=O)(=O)c3cccc(F)c3)c2)c(-c2cccc(O)c2)n1
inhibition [1]: 86.4%

COc1cccc(-c2nn(C(C)(C)C)cc2-c2ccnc(NCCNS(=O)(=O)c3ccc(C)cc3)c2)c1
inhibition [1]: 4.68%

COc1cccc(-c2nn(C(C)(C)C)cc2-c2ccnc(NCCNS(=O)(=O)c3ccc(F)cc3)c2)c1
inhibition [1]: 3.91%

CC(C)(C)n1cc(-c2ccnc(NCCNS(=O)(=O)c3ccc(C(F)(F)F)cc3)c2)c(-c2cccc(O)c2)n1
inhibition [1]: 66.6%

COc1cccc(-c2nn(C(C)(C)C)cc2-c2ccnc(NCCCNS(=O)(=O)c3ccc(C)cc3)c2)c1
inhibition [1]: 37.8%

CC(C)(C)n1cc(-c2ccnc(NCCCNS(=O)(=O)c3cccc(F)c3)c2)c(-c2cccc(O)c2)n1
inhibition [2]: 98.5% | IC50 [3]: 6.81 nM | inhibition [1]: 98.4% | inhibition [5]: 98.2%

COc1cccc(-c2nn(C(C)(C)C)cc2-c2ccnc(NCCCNS(=O)(=O)c3cccc(F)c3)c2)c1
inhibition [1]: 29.9%

COc1ccc(S(=O)(=O)NCCNc2cc(-c3cn(C(C)(C)C)nc3-c3cccc(O)c3)ccn2)cc1
inhibition [2]: 94.4% | IC50 [3]: 55.8 nM | inhibition [1]: 90.6% | inhibition [5]: 96.2%

COc1cccc(-c2nn(C(C)(C)C)cc2-c2ccnc(NCCCNS(=O)(=O)c3ccccc3)c2)c1
inhibition [1]: 38.8%

COc1cccc(-c2nn(C(C)(C)C)cc2-c2ccnc(NCCCNS(=O)(=O)c3ccc(Cl)cc3)c2)c1
inhibition [2]: 68.2% | inhibition [1]: 79.6%

CC(C)(C)n1cc(-c2ccnc(NCCNS(=O)(=O)c3ccc(Cl)cc3)c2)c(-c2cccc(O)c2)n1
inhibition [1]: 78.7%

COc1cccc(-c2nn(C(C)(C)C)cc2-c2ccnc(NCCNS(=O)(=O)c3ccc(Cl)cc3)c2)c1
inhibition [1]: 0.99%

COc1ccc(S(=O)(=O)NCCCNc2cc(-c3cn(C(C)(C)C)nc3-c3cccc(OC)c3)ccn2)cc1
inhibition [1]: 49.2%

CC(C)(C)n1cc(-c2ccnc(NCCNS(=O)(=O)c3cccc4ccccc34)c2)c(-c2cccc(O)c2)n1
inhibition [1]: 63.7%

CC(C)(C)n1cc(-c2ccnc(NCCNS(=O)(=O)c3ccc(F)cc3)c2)c(-c2cccc(O)c2)n1
inhibition [1]: 87.2%

COc1cccc(-c2nn(C(C)(C)C)cc2-c2ccnc(NCCNS(=O)(=O)c3ccc(Br)cc3)c2)c1
inhibition [1]: -6.18%

COc1cccc(-c2nn(C(C)(C)C)cc2-c2ccnc(NCCCNS(=O)(=O)c3ccc(Br)cc3)c2)c1
inhibition [2]: 57.7% | inhibition [1]: 73.7%

COc1ccc(S(=O)(=O)NCCCNc2cc(-c3cn(C(C)(C)C)nc3-c3cccc(O)c3)ccn2)cc1
Activity [8]: 0.52% | Activity [9]: 2.14% | inhibition [2]: 98.5% | Activity [10]: 29.83% | Activity [11]: 19.83% | Activity [12]: 45.33% | Activity [13]: 0.34% | Activity [14]: 0.73% | Activity [15]: 0.17% | IC50 [16]: 26.7 nM | Activity [17]: Active | IC50 [18]: 2810 nM | Activity [19]: 0.34% | IC50 [7]: 4820 nM | Activity [20]: 98.97% | IC50 [3]: 1.81 nM | IC50 [21]: 383 nM | Activity [22]: 6.24% | Activity [23]: 32.54% | Activity [24]: 0.59% | IC50 [4]: 12.7 nM | Activity [25]: 1.94% | Activity [26]: 0.09% | inhibition [1]: 99.6% | inhibition [5]: 98% | Activity [27]: 1.89% | Activity [28]: 1.34% | Activity [29]: 62.99% | IC50 [6]: 10.5 nM
